Experimental data as given in patent USRE42890E1, “Furazanobenzimidazoles” (Basilea Pharmaceutica AG, priority 2003, dated 2011).
Where two headings read alike, the source gives them in different places.

What was measured:
Jurkat = assay: MTS proliferation assay, Jurkat; type: cell-based, human; conditions: 72 h incubation, read-out: MTS proliferation assay IC 50 Jurkat
Description: (§1) Cell lines are cultured in RPMI-1640 tissue culture medium containing either 5% or 10% fetal calf serum, 0.05 mM 2-mercaptoethanol, 2 mM glutamine and penicillin/streptomycin 50 μg/ml (complete medium) (Sigma, Buchs, Switzerland). General growth conditions are 37° C. and 7.5% CO2.
(§2) The following human cell lines (either EGFP transfected or not) are being used: HeLa (ATCC: CCL-2), KB (ATCC: CCL-17), MCF7 (ATCC: HTB-22), SK-BR-3 (ATCC: HTB-30), SK-Mel 1 (ATCC: HTB-67), SK-Mel 28 (ATCC: HTB-72), PC-3 (ATCC: CRL-1435), SW 480 (ATCC: CCL-228), NCl-H460 (ATCC: HTB-177), NCl-H1792 (ATCC: CRL-5895), HT1080 (ATCC: CCL-21), Jurkat (ATCC: TIB-152), Ramos (ATCC: CRL-1596), Raji (ATCC: CCL-86), H9 (ATCC: HTB-176), Hut78 (ATCC: TIB-161), K562 (ATCC: CCL 243), HL-60 (ATCC: CCL 240), U-87MG (ATCC: HTB-14), HepG2 (ATCC: HB-8065), U-2 OS (ATCC: HTB-96), Saos-2 (ATCC: HTB-85), U937 (ATCC: CRL 1593), Hs 578T (ATCC: HTB 126), HBL-100 (ATCC: HTB 124), Molt-4 (ATCC: CRL 1582).
(§3) The assay is performed in 96 well tissue culture plates. The cells (range: 1.5*10^3-10^4) are seeded out in 80 μl complete medium 24 h prior to compound treatment. The test compounds are added in 20 μl complete medium containing max 5% DMSO. The final compound concentrations in the assays are 10 μM, 3 μM, 1 μM and 0.3 μM, respectively. The assay plates are incubated for 72 h at culture conditions. The MTS reagent is prepared according to the manufacturer's protocol (Promega G1111). 20 μl MTS reagent are added to each well, the assay plates are quickly spun and incubated for another 3 h at culture conditions. Subsequently, the plates are shortly shaked and absorption measured with a microplate-reader at 492 nm.

MRC5 = assay: MTS proliferation assay, MRC5; type: cell-based; conditions: MRC5, 72 h incubation, read-out: MTS proliferation assay IC 50 MRC5
Description: as §1, §3

[1] = system: adherent cells or suspension cells; assay: Hoechst 33342 nuclear staining (fraction of apoptotic nuclei); type: cell-based; set-up: key: 0 relating to no activity; 1 relating to weak activity comprising less than 70% of the cells; score 2 relating to strong activity comprising more than 70% of the cells
Description: as §1
This assay is performed in 96 well tissue culture plates. Appropriate number of cells (adherent cells: 3-5*10^3, suspension cells: 8-10*10^3) are being seeded out in 80 μl complete medium. Adherent cells are incubated for 24 h for proper spreading out before addition of test compounds while suspension cells are immediately treated with test compounds after seeding out. The test compounds are added in 20 μl complete medium containing max 5% DMSO. […] After 24 h or 48 h incubation at culture conditions, 10 μl medium containing Hoechst 33342 dye (Sigma B-2261) at 2-5 μg/ml are added to each well. The assay plates are then further incubated for 30 minutes and subsequently analyzed with a standard inverted fluorescence microscope.
The readout allows the determination of the fraction of apoptotic nuclei as well as other morphological criteria specific for apoptosis as a function of the treatment. The following scores are used: 0 relating to no activity, 1 relating to weak activity comprising less than 70% of the cells and score 2 relating to strong activity comprising more than 70% of the cells.

HeLa = assay: MTS proliferation assay, HeLa; type: cell-based, human; conditions: 72 h incubation, read-out: MTS proliferation assay IC 50 HeLa
Description: as §1, §2, §3

Compound | IC50 (Jurkat) [µM] | IC50 (MRC5) [µM] | Hoechst 33342 nuclear staining score ([1]; H460, conc 0.01 μm) | Hoechst 33342 nuclear staining score ([1]; H460, conc 0.1 μm) | Hoechst 33342 nuclear staining score ([1]; H460, conc 1 μm) | Hoechst 33342 nuclear staining score ([1]; HeLa, conc 0.01 μm) | Hoechst 33342 nuclear staining score ([1]; HeLa, conc 0.1 μm) | Hoechst 33342 nuclear staining score ([1]; HeLa, conc 1 μm) | Hoechst 33342 nuclear staining score ([1]; Jily, conc 0.01 μm) | Hoechst 33342 nuclear staining score ([1]; Jily, conc 0.1 μm) | Hoechst 33342 nuclear staining score ([1]; Jily, conc 1 μm) | Hoechst 33342 nuclear staining score ([1]; Jurkat, conc 0.01 μm) | Hoechst 33342 nuclear staining score ([1]; Jurkat, conc 0.1 μm) | Hoechst 33342 nuclear staining score ([1]; Jurkat, conc 1 μm) | Hoechst 33342 nuclear staining score ([1]; MRC5, conc 0.01 μm) | Hoechst 33342 nuclear staining score ([1]; MRC5, conc 0.1 μm) | Hoechst 33342 nuclear staining score ([1]; MRC5, conc 1 μm) | Hoechst 33342 nuclear staining score ([1]; PBLs, conc 0.01 μm) | Hoechst 33342 nuclear staining score ([1]; PBLs, conc 0.1 μm) | Hoechst 33342 nuclear staining score ([1]; PBLs, conc 1 μm) | further results
CC(=O)Nc1nonc1-c1nc2ccccc2n1CC(=O)c1ccccc1 [Example 40] | 0.1 to 1 | > 1 | 0 | 0 | 0 | 0 | 0 | 0 | 0 | 0 | 1 (1 relating to weak activity comprising less than 70% of the cells) | 0 | 0 | 0 | 0 | 0 | 0 | 0 | 0 | 0 | IC50 (HeLa): 0.1 to 1 µM
CCN(CC)c1ccc(C(=O)Cn2c(-c3nonc3N)nc3ccccc32)cc1 [Example 39] | > 1 | > 1 | 0 | 0 | 0 | 0 | 0 | 0 | 0 | 0 | 0 | 0 | 0 | 0 | 0 | 0 | 0 | 0 | 0 | 0 | IC50 (HeLa): > 1 µM
Nc1nonc1-c1nc2ccccc2n1CC(=O)c1ccccc1 [Example 1, 4-(1-Phenacyl-1H-benzimidazol-2-yl)-furazan-3-ylamine] | – | – | 0 | 0 | 2 (score 2 relating to strong activity comprising more than 70% of the cells) | 0 | 0 | 2 (score 2 relating to strong activity comprising more than 70% of the cells) | – | – | – | 0 | 0 | 2 (score 2 relating to strong activity comprising more than 70% of the cells) | 0 | 0 | 1 (1 relating to weak activity comprising less than 70% of the cells) | 0 | 0 | 0 | IC50 (Jurkat; Homo sapiens): 0.01 to 0.1 µM; IC50 (MRC5; Homo sapiens): > 1 µM; IC50 (HeLa; Homo sapiens): 0.1 to 1 µM
CC(=O)Nc1nonc1-c1nc2ccccc2n1CC(=O)c1ccc(Cl)cc1 [Example 5, N-{4-[1-(4-Chlorophenacyl)-1H-benzimidazol-2-yl]-furazan-3-yl}-acetamide] | – | – | – | – | – | 0 | 0 | 2 (score 2 relating to strong activity comprising more than 70% of the cells) | – | – | – | 0 | 0 | 2 (score 2 relating to strong activity comprising more than 70% of the cells) | 0 | 0 | 0 | 0 | 0 | 0 | IC50 (Jurkat; Homo sapiens): 0.1 to 1 µM; IC50 (MRC5; Homo sapiens): 0.1 to 1 µM; IC50 (HeLa; Homo sapiens): 0.1 to 1 µM
